Data: US20100305087A1, “ACTIVE PHARMACEUTICAL INGREDIENT ON A SOLID SUPPORT, AMORPHOUS AND WITH AN IMPROVED SOLUBILITY” (Lek Pharmaceuticals d.d., priority 2007, published 2010)
Values belong to the compound of their own block, whether it stands above or below them.

Columns and labels:
[1] = Dissolution profile of ezetimibe preparations in water (amount dissolved over time); format: physicochemical
Source text: The results are shown in Tables 1 to 3, and FIGS. 1 to 3.

[2] = Dissolution profile of atovaquone preparations in 10 mM triethylamine/HCl (pH=10) buffer; format: physicochemical
[3] = cited from earlier work

Amount dissolved ([1]; Ezetimibe and Prosolv, time 10 min): 0.08 µg/mL
Amount dissolved ([1]; Ezetimibe and Prosolv, time 20 min): 0.13 µg/mL
Amount dissolved ([1]; Ezetimibe and Prosolv, time 60 min): 0.12 µg/mL
Amount dissolved ([1]; Ezetimibe and Prosolv, time 100 min): 0.25 µg/mL
Structure (SMILES): O=C1[C@H](CC[C@H](O)c2ccc(F)cc2)[C@@H](c2ccc(O)cc2)N1c1ccc(F)cc1 [Crystalline ezetimibe, 1-(4-fluorophenyl)-3-[3-(4-fluorophenyl)-3-hydroxy-propyl]-4-(4-hydroxyphenyl)-azetidin-2-one]

Amount dissolved ([1]; Ezetimibe and Aerosil 200, time 10 min): 0.19 µg/mL
Amount dissolved ([1]; Ezetimibe and Aerosil 200, time 20 min): 0.20 µg/mL
Amount dissolved ([1]; Ezetimibe and Aerosil 200, time 45 min): 0.27 µg/mL
Amount dissolved ([1]; Ezetimibe and Aerosil 200, time 100 min): 0.41 µg/mL
Structure (SMILES): O=C1[C@H](CC[C@H](O)c2ccc(F)cc2)[C@@H](c2ccc(O)cc2)N1c1ccc(F)cc1 [Amorphous ezetimibe, 1-(4-fluorophenyl)-3-[3-(4-fluorophenyl)-3-hydroxy-propyl]-4-(4-hydroxyphenyl)-azetidin-2-one]

Amount dissolved ([2]; Atovaquone and Aerosil 200, time 10 min): 0.16 µg/mL
Amount dissolved ([2]; Atovaquone and Aerosil 200, time 20 min): 0.7 µg/mL
Amount dissolved ([2]; Atovaquone and Aerosil 200, time 60 min): 4.1 µg/mL
Amount dissolved ([2]; Atovaquone and Aerosil 200, time 100 min): 6.2 µg/mL
Structure (SMILES): O=C1C(=O)c2ccccc2C(O)=C1C1CCC(c2ccc(Cl)cc2)CC1 (centres unmarked) [Crystalline atovaquone, 3-[4-(4-chlorophenyl)cyclohexyl]-4-hydroxy-naphthalene-1,2-dione]

Structure (SMILES): O=C1[C@H](CC[C@H](O)c2ccc(F)cc2)[C@@H](c2ccc(O)cc2)N1c1ccc(F)cc1 [ezetimibe, 1-(4-fluorophenyl)-3-[3-(4-fluorophenyl)-3-hydroxy-propyl]-4-(4-hydroxyphenyl)-azetidin-2-one]
log P/hydrophobicity value [3]: 4.584

Structure (SMILES): O=C1C(=O)c2ccccc2C(O)=C1C1CCC(c2ccc(Cl)cc2)CC1 (centres unmarked) [atovaquone, 3-[4-(4-chlorophenyl)cyclohexyl]-4-hydroxy-naphthalene-1,2-dione]
log P/hydrophobicity value [3]: 5.251
